Reference: patent US8883480B2 (priority 2008, dated 2014)
Bridge positions count the residues as written; N and C are the ends. Peptide text beside a SMILES is read from it.

Tests used:
[1] = test system: avian influenza virus H9N2; assay type: cell-based
AIV H9N2 = test system: AIV H9N2; set-up: species or system avian influenza virus H9N2; conditions: in vivo
Streptavidin = Streptavidin (Streptomyces avidinii, UniProt P22629); assay type: binding
[2] = biological target: avian influenza virus (AIV) subtype H9N2, purified whole virus particles; assay: cell-based or functional assay

Streptavidin, sequence (P22629 25-183, species assumed): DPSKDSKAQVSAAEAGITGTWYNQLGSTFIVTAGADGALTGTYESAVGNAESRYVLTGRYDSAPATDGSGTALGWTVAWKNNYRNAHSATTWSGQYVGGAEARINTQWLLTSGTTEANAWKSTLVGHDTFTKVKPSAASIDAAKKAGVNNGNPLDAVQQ

C[C@@H](O)[C@@H]1NC(=O)[C@H](CCCCN)NC(=O)[C@H](CO)NC(=O)[C@H](CCCNC(=N)N)NC(=O)[C@H](Cc2ccccc2)NC(=O)[C@H](CC(=O)O)NC(=O)[C@H](CC(N)=O)NC(=O)[C@@H](N)CSSC[C@@H](C(=O)O)NC1=O [CNDFRSKTC] (H-CNDFRSKTC-OH; disulfide 1-9 (inferred); N-terminus and C-terminus assumed)
Agglutination of RBC (+AIV 32 HAU; 50 μl) [1]: No and Yes
Agglutination of RBC (−AIV 32 HAU; 50 μl) [1]: No
AIV titer in the allantoic fluid (haemagglutination titer) (AIV H9N2): reduced the AIV titer
IC50 (AIV H9N2; read-out: IC50, inhibition of propagation of AIV H9N2): < 100 µM

GLYNHPQ
Frequency of sequences (%) (Streptavidin): 27%

HPQFLSL
Frequency of sequences (%) (Streptavidin): 55%

NDFRSKT
Agglutination of RBC (+AIV 32 HAU; 50 μl) [1]: No and Yes
Agglutination of RBC (−AIV 32 HAU; 50 μl) [1]: No
AIV titer in the allantoic fluid (haemagglutination titer) (AIV H9N2): reduced the AIV titer

synthetic linear peptide NDFRSKT
IC50 [2]: < 100 µM
